We go through one compound from PMC5099944, “Design, synthesis and biological evaluation of hybrids of β-carboline and salicylic acid as potential anticancer and apoptosis inducing agents” (Scientific Reports, 2016).

Test [1] has as its system Bax, Bcl-2, caspase-3, PARP in SMMC-7721 cells. The experiment in a line: Western blot assay of apoptosis-related proteins. Type of test: cell-based, human. The protocol: Next, to investigate the preliminarily molecular mechanisms underlying the cell apoptosis profiles in 8h-treated cells, we conducted western blot analysis to examine the expression of apoptosis proteins in SMMC-7721 cells. It is well known that Bcl-2 and Bax are anti-apoptotic or pro-apoptotic regulator proteins, respectively, and caspase-3 is the execution factor of apoptosis. In addition, PARP is one of several known cellular substrates for caspase-3 and the cleavage of PARP by caspase-3 is considered to be a hallmark of apoptosis.
Figure 5 Effect of 8h on the expression of apoptosis-related proteins in SMMC-7721 cells. (A) The expression of Bax, Bcl2, caspase 3 and β-actin was examined by western blot analysis. SMMC-7721 cells were incubated with, or without, 8h at the indicated concentrations for 48 h and the levels of protein expression were detected using specific antibodies, and β-actin was used as the control. Data shown are representative images of each protein for three separate experiments. (B) Quantitative analysis: the relative levels of each protein compared to control β-actin were determined by densimetric scanning. Data are expressed as means ± SD from three separate experiments. *P < 0.01 vs control.
The mechanisms of the cell apoptosis were determined by western blot assay. SMMC-7721 cells at 1.5 × 10^5/mL were treated with 3.5, 7.0, or 14 μM 8h or vehicle control for […]. After harvested and lyzed, the cell lysates (50 μg/lane) were separated by SDS-PAGE (12% gel) and transferred onto nitrocellulose membranes. After blocked with 5% fat-free milk, the target proteins were probed with anti-Bcl-2, anti-Bax, anti-caspase-3, anti-PARP, and anti-β-actin antibodies (Cell Signaling, Boston), respectively. The bound antibodies were detected by HRP-conjugated second antibodies and visualized using the enhanced chemiluminescent reagent.

In test [2] the test system is Hep G2 cells. Nature of the test: MTT assay, proliferation of Hep G2 cells. Type of test: cell-based. Conditions: Homo sapiens, HepG2, 48 h, read-out: In vitro cytotoxicity (IC50) Hep G2. The protocol:
(§1) The in vitro antitumor activities of the synthesized compounds 7a-l and 8a-l against five human cancer cells were evaluated in MTT assays using 5-fluorouracil (5-FU) and harmine as positive controls. These cells are human hepatocellular carcinoma cells (SMMC-7721 and Hep G2), human colon cancer cell lines (HCT116), human bladder carcinoma cells (EJ), and human lung cancer cells (H460).
(§2) Hepatocellular carcinoma cells (SMMC-7721 and Hep G2), Human colon cancer cell lines (HCT116), human bladder carcinoma cells (EJ) or human lung cancer cells (H460) at 10^4 cells per well were cultured in 10% FBS DMEM in 96-well flat-bottom microplates overnight. The cells were incubated in triplicate with, or without, different concentrations of each test compound for 48 h. During the last 4 h incubation, 30 μL of tetrazolium dye (MTT) solution (5 mg mL^−1) was added to each well. The resulting MTT-formazan crystals were dissolved in 150 μL DMSO, and absorbance was measured spectrophotometrically at 570 nm using an ELISA plate reader. The inhibition induced by each test compound at the indicated concentrations was expressed as a percentage. The concentration required for 50% inhibition (IC50) was calculated using the software (GraphPadPrism Version 4.03).
In general terms: Tetrazolium dyes change colour on reduction, which living cells bring about.

For test [3], the system named is SMMC-7721 cells. The experiment in a line: MTT assay, proliferation of SMMC-7721 cells. Conditions: Homo sapiens. Type of test: cell-based, human. The method, then:
as §1, §2

[4] abbreviates: western blot, 3.5, 7.0 or 14 μM.

For orientation: IC50 means the midpoint of a concentration-inhibition curve. As for `Cc1nc(C(=O)NCCCCCNC(=O)c2ccccc2O)cc2c1[nH]c1ccccc12` [8h, N-(5-(2-Hydroxybenzamido)pentyl)-1-methyl-9H-pyrido[3,4-b]indole-3-carboxamide], in test [1] (setting [4]), the “Expression of Bcl-2” value was “dramatically reduced in a concentration-dependent manner” and the “Protein levels of Bax” value was “significantly increased”. Further, the “Cleavage of PARP and caspase-3” value in test [1] (western blot, vs control group) is “more significant cleavage of both PARP and caspase-3 than the control group”. Further, in test [2], the half-inhibitory concentration (IC50) worked out at 7.12 µM. Also, the IC50 in test [3] (SMMC-7721, 48 h, read-out: In vitro cytotoxicity (IC50) SMMC-7721, MTT assay, 48 h, SMMC-7721 human hepatocellular carcinoma cells) was found to be 6.97 µM. The inhibition at 25 µM in test [3] (SMMC-7721, 25 μM, 48 h, MTT assay, read-out: Inhibition of SMMC-7721 cell proliferation) is approximately 90%.
